Source: US11185552B2, “Inhibitors of glucose-6-phosphate dehydrogenase for treating cardiovascular and pulmonary conditions” (ICHOR, LLC., priority 2016, dated 2021)

Columns and labels:
[1] = test system: Bovine pulmonary artery rings; test: Relaxation of KCl pre-contracted bovine pulmonary artery rings; conditions: pre-contracted with KCl (30 mM), Krebs buffer
Protocol: FIG. 6 is a graph showing bovine pulmonary artery rings that were incubated in Krebs buffer and pre-contracted with KCl (30 mM). These pre-contracted rings relaxed by G6PD inhibitors; PD109 (109), PD2124 (2124), PD2958 (2958) and PD4091 (4091) or dehydroepiandrosterone (DHEA).
Bovine pulmonary artery rings were incubated in Krebs buffer and pre-contracted with KCl (30 mM). These pre-contracted rings relaxed by G6PD inhibitors; PD109 (109), PD2124 (2124), PD2958 (2958) and PD4091 (4091) or dehydroepiandrosterone (DHEA) (FIG. 6).

[2] = test system: Rat pulmonary artery smooth muscle cells; test: Cell number/proliferation by Cyquant assay; format: cell-based; conditions: 72 hr treatment, versus vehicle control
Protocol: (§1) FIGS. 4A and 4B are graphs showing results for rat pulmonary artery smooth muscle cells that were cultured in 15% DMEM media for 48 hr and cells were treated with newly synthesized G6PD drugs; PD109 (109), PD2124 (2124), PD2958 (2958) and PD4091 (4091) or vehicle control (Con) for 72 hr. Cell number/proliferation (FIG. 4A) and apoptosis (FIG. 4B) was determined by Cyquant and Caspase3/7 assay, respectively. Cell numbers were decreased by G6PD inhibitors (FIG. 4A). Cell apoptosis was increased by PD2958 (1 microM) N=5 in each group (FIG. 4B).
as §1, with “Rat” for “FIGS. 4A and 4B are graphs showing results for rat”, “cells” for “cells that”, “number/proliferation” for “number/proliferation (FIG. 4A)”, “apoptosis” for “apoptosis (FIG. 4B)”, “inhibitors.” for “inhibitors (FIG. 4A).”, “(FIGS. 4A and” for “(FIG.”

[3] = test system: Bovine pulmonary arteries; test: Smooth muscle protein expression in bovine pulmonary arteries incubated in Krebs buffer; conditions: 12 hr
Protocol: FIGS. 3A and 3B are graphs showing results for bovine pulmonary arteries that were incubated in Krebs buffer with and without G6PD inhibitor PD2958 (2958) and PD2124 (2124) for 12 hr. Vascular smooth cell-specific protein myocardin (MYOCD; FIG. 3A) and smooth muscle myosin heavy chain (MHY11; FIG. 3B) expression was increased by PD2958 (10 microM) and PD2124 (1 microM).
Bovine pulmonary arteries were incubated in Krebs buffer with and without G6PD inhibitor PD2958 (2958) and PD2124 (2124) for 12 hr. Vascular smooth cell-specific protein myocardin (MYOCD) and smooth muscle myosin heavy chain (MHY11) expression was increased by PD2958 (10 microM) and PD2124 (1 microM) (FIGS. 3A and 3B).

[4] = test system: mice with pulmonary hypertension; test: Hypoxia (10% O2) pulmonary hypertension in mice; format: in vivo; conditions: S.C. 1.3 mg/Kg for 1 wk from wk 4 to wk 5, 10% O2
Protocol: Placebo and 2124 were injected S.C. (1.3 mg/Kg) for 1 wk from wk 4 to wk 5.

G6PD = G6PD (Homo sapiens, UniProt P11413); test: G6PD activity inhibition (enzyme assay)
[5] = test system: Aortic rings of G6PD-deficient mice; test: Relaxation of KCl pre-contracted aortic rings, G6PD-deficient mice; conditions: KCl (30 mM)
Protocol: (§2) FIG. 7 is a graph showing aortic rings of wild-type and G6PD-deficient pre-contracted with KCl (30 mM).
(§3) Aortic rings of wild-type and G6PD-deficient pre-contracted with KCl (30 mM).

[6] = test system: Rat pulmonary artery smooth muscle cells; test: Apoptosis by Caspase3/7 assay; format: cell-based; conditions: 1 microM, 72 hr, N=5
Protocol: as §1
as §1, with “Rat” for “FIGS. 4A and 4B are graphs showing results for rat”, “cells” for “cells that”, “number/proliferation” for “number/proliferation (FIG. 4A)”, “apoptosis” for “apoptosis (FIG. 4B)”, “inhibitors.” for “inhibitors (FIG. 4A).”, “(FIGS. 4A and” for “(FIG.”

[7] = test system: Rat pulmonary artery smooth muscle cells; test: Cell migration; format: cell-based; conditions: 1 microM, 72 hr, N=5
Protocol: (§4) FIGS. 5A and 5B are images (FIG. 5A) and a graph (FIG. 5B) showing rat pulmonary artery smooth muscle cells that were cultured in 15% DMEM media for 48 hr and cells were treated with newly synthesized G6PD drugs; PD2958 (2958) or vehicle control (Con) for 72 hr. Cells migration was determined. Cell migration was abrogated by PD2958 (1 microM). N=5 in each group.
as §4, with “Rat” for “FIGS. 5A and 5B are images (FIG. 5A) and a graph (FIG. 5B) showing rat”, “cells” for “cells that”, “group (FIGS. 5A and 5B).” for “group.”

[8] = test system: Aortic rings of wild-type mice; test: Relaxation of KCl pre-contracted aortic rings, wild-type mice; conditions: KCl (30 mM)
Protocol: as §2, §3

Chain of G6PD (P11413 whole entry): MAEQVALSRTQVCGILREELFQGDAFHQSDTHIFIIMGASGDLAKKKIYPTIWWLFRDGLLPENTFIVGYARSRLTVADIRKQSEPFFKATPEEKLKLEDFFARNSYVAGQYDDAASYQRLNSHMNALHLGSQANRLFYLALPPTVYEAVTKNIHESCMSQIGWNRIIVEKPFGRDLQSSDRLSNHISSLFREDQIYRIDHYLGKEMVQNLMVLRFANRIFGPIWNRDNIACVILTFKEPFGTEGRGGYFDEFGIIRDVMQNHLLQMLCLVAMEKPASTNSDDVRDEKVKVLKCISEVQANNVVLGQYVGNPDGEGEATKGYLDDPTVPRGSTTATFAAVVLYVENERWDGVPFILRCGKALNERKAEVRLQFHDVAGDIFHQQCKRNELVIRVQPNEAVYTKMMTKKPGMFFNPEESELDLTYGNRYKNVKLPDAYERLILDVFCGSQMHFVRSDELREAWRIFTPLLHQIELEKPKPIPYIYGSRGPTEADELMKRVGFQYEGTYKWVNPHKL

C[C@]12CC[C@H](O)CC1=CC[C@@H]1[C@@H]2CC[C@]2(C)C(=O)CC[C@@H]12 [PD109, 5-Androsten-3-beta-hydroxy-17-one (Dehydroepiandrosterone), reference compound]
relaxation of pre-contracted pulmonary artery rings [1]: relaxed | Cell number/proliferation [2]: decreased

C[C@]12CC[C@H](O)C[C@@H]1CC[C@@H]1[C@@H]2CC[C@]2(C)[C@@H](C(=O)CO)CC[C@@H]12 [PD2124, (3β,5α)-3,21-Dihydroxypregnan-20-one]
myocardin (MYOCD) expression ([3]; 1 microM): increased | smooth muscle myosin heavy chain (MHY11) expression ([3]; 1 microM): increased | relaxation of pre-contracted pulmonary artery rings [1]: relaxed | Cell number/proliferation [2]: decreased | TPR [4]: reduced and reversed | arterial elastance [4]: reduced and reversed | cardiac index [4]: increased | left ventricle (LV) stiffness [4]: reduced and reversed | pulmonary resistance determined as PAAT-to-ET ratio [4]: reduced and reversed | IC50 (G6PD): 1 to 10 µM

CCNC(=O)N[C@H]1CC[C@@]2(C)[C@@H](CC[C@@H]3[C@@H]2CC[C@]2(C)C(=O)CC[C@@H]32)C1 [PD2958, N-Ethyl-N′-[(3β,5α)-17-oxoandrostan-3-yl]urea]
relaxation of pre-contracted aortic rings [5]: not G6PD-deficient mice were relaxed | Cell apoptosis [6]: increased | myocardin (MYOCD) expression ([3]; 10 microM): increased | smooth muscle myosin heavy chain (MHY11) expression ([3]; 10 microM): increased | Cell migration [7]: abrogated | relaxation of pre-contracted pulmonary artery rings [1]: relaxed | Cell number/proliferation [2]: decreased | relaxation of pre-contracted aortic rings [8]: relaxed in dose-dependent manner | IC50 (G6PD): 1 to 10 µM

CC(=O)[C@H]1CC[C@H]2[C@@H]3CC[C@H]4C[C@@H](NS(C)(=O)=O)CC[C@]4(C)[C@H]3CC[C@]12C [PD4091, N-[(3β,5α)-20-Oxopregnan-3-yl]methanesulfonamide]
IC50 (G6PD): 1 to 10 µM
